Laboratory results from the SangsterLogP compilation.

Assay: method code SF, from DOI: 10.1515/bc.2003.056, PMID: 12715901

Structure (SMILES)	logP
CCC(C)OC(=O)C1(CC)CCC=[N+]1[O-] (stereo unspecified)	0.28
CCCOC(=O)C1(CCC)CCC=[N+]1[O-] (stereo unspecified)	0.42
CCCOC(=O)C1(CC)CCC=[N+]1[O-] (stereo unspecified)	-0.11
CCCCOC(=O)C1(CCC)CCC=[N+]1[O-] (stereo unspecified)	0.89
CCCC1(C(=O)OC(C)C)CCC=[N+]1[O-] (stereo unspecified)	0.29
CC(C)OC(=O)C1(C)CCC=[N+]1[O-] (stereo unspecified)	-0.7
CCCCOC(=O)C1(CC)CCC=[N+]1[O-] (stereo unspecified)	0.46

Next, values leading:

logP	Structure (SMILES)
-0.18	CCC1(C(=O)OC(C)C)CCC=[N+]1[O-] (stereo unspecified)
0.18	CCC1(C(=O)OC(C)(C)C)CCC=[N+]1[O-] (stereo unspecified)
0.43	CCCC1(C(=O)OC(C)(C)C)CCC=[N+]1[O-] (stereo unspecified)
-0.6	CCOC(=O)C1(CC)CCC=[N+]1[O-] (stereo unspecified)
